Measurements from patent publication US9296708B2, “Chimeric small molecules for the recruitment of antibodies to cancer cells” (YALE UNIVERSITY, priority 2008, dated 2016).
Residues, ends and D or L forms follow the SMILES beside them.

Key:
Assay type in all cases: biochemical
rhPSMA [1] = target: T1, rhPSMA (Homo sapiens (Human), UniProt Q04609); test: PSMA inhibition assay (NAAG hydrolysis, Amplex Red); details: for IC50: mean of triplicate experiments ± SD
rhPSMA [2] = target: T1, rhPSMA; test: Measurement of PSMA Km; details: NAAG substrate, 40 μM-312.5 nM, room temperature 15 min
Procedure: A 10 mM solution of N-acetyl-aspartylglutamate (NAAG) in 40 mM NaOH, and was then diluted in Reaction Buffer (100 mM Tris-HCl, pH 7.5) to a final NAAG concentration of 40 µM. The solution was added to a 384 well plate (20 µL per well). […] Reaction Buffer (20 µL) was added to the Km control series. The plate was incubated at room temperature for 15 min, and then heated to 95° C. for 3 minutes. The plate was allowed to cool to room temperature, and glutamic acid levels were measured using a commercially available Amplex®—Red Glutamic Acid/Glutamate Oxidase Assay Kit (Invitrogen). Fluorescence intensities were measured using a Synergy 2 multiwell plate reader (Biotek), fitted with excitation and emission filters of 545 nm and 590 nm, respectively. […] This value is consistent with that reported in the literature^7 and was employed in subsequent Ki calculations (see below).

[3] = target: human recombinant PSMA (rhPSMA) (Homo sapiens (Human), UniProt Q04609); test: NAALADase inhibition experiments (Amplex Red glutamate release); details: human recombinant PSMA (R&D Research); average of three runs ± standard deviation
Sequence of human recombinant PSMA (rhPSMA) (Q04609 44-750 limits assumed): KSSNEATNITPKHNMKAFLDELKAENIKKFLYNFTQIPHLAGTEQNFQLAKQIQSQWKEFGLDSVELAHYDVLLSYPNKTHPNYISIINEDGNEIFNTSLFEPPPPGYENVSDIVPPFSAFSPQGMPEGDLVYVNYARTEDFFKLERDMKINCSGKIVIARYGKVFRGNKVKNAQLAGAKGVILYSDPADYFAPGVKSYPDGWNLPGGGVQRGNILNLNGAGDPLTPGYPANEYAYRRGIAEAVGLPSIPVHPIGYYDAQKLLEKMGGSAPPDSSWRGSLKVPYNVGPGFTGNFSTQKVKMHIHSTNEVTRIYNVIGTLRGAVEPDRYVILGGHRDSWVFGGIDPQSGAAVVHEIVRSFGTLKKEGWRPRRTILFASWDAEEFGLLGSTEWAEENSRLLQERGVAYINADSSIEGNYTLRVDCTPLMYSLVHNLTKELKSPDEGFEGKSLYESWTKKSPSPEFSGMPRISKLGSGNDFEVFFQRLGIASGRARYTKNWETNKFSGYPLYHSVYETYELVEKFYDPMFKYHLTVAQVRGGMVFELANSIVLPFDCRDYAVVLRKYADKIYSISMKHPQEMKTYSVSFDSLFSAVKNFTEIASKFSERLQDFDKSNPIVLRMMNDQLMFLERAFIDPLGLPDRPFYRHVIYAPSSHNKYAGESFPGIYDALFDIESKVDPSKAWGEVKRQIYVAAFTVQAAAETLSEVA
Procedure: A 10 mM stock solution of N-acetyl-aspartyl-glutamate (NAAG) in 40 mM NaOH was diluted to 40 μM in Tris buffer (0.1M Tris-HCl, pH=7.5), and was added to 384 well plate (25 μl per well). […] For IC50 measurements, solutions of recruiting molecule 3 in water (2 μL per well, dilution series) were added to wells. For all other wells, 2 μL of water was added. To initiate reactions, rhPSMA (R&D research) diluted in Tris buffer (20 pg/mL), was added to each well (25 μl per well). For negative controls, Tris buffer was added (25 μl per well). The plate was covered and incubated for 15 minutes, at which time the protein was deactivated by heating the plate to 95° C. for 3 minutes. After plate was allowed to cool, glutamic acid release was visualized using an Amplex®-Red glutamic acid/glutamate oxidase assay kit (Invitrogen). Km and IC50 values were calculated using graphpad prism software, and Ki was calculated from these values using the Cheng-Prusoff Equation. This process was run in triplicate, and is reported in the manuscript as the average of three runs±standard deviation.

[4] = Table 1, from IC50 and Km via Cheng-Prusoff equation
[5] = Table 2, Cheng-Prusoff equation, Km 925 nM

T1 sequence (Q04609 44-750): as the sequence (Q04609 44-750 limits assumed) above

Row | Ki (rhPSMA [1]; [5]) [nM] | IC50 (rhPSMA [1]; Table 2) [nM] | Compound | Ki (rhPSMA [1]; [4]) [nM] | IC50 (rhPSMA [1]; Table 1, 20 μM NAAG) [nM] | further results
1 |  |  | O=C(O)CC[C@H](NC(=O)N[C@@H](CCCCn1cc(CNc2ccc([N+](=O)[O-])cc2[N+](=O)[O-])nn1)C(=O)O)C(=O)O [1, ARM-P0, (S)-2-(3-((S)-1-carboxy-5-(4-((2,4-dinitrophenylamino)methyl)-1H-1,2,3-triazol-1-yl)pentyl)ureido)pentanedioic acid] | 0.078 ± 0.018 | 1.76 ± 0.41 | 
2 |  |  | O=C(O)CC[C@H](NC(=O)N[C@@H](CCCCn1cc(COCCNc2ccc([N+](=O)[O-])cc2[N+](=O)[O-])nn1)C(=O)O)C(=O)O [2, ARM-P1, (S)-2-(3-((S)-1-carboxy-5-(4-((2-(2,4-dinitrophenylamino)ethoxy)methyl)-1H-1,2,3-triazol-1-yl)pentyl)ureido)pentanedioic acid] | 0.047 ± 0.005 | 1.05 ± 0.11 | 
3 |  |  | O=C(O)CC[C@H](NC(=O)N[C@@H](CCCCn1cc(COCCOCCOCCOCCOCCOCCNc2ccc([N+](=O)[O-])cc2[N+](=O)[O-])nn1)C(=O)O)C(=O)O [5, ARM-P6] | 0.101 ± 0.027 | 2.29 ± 0.6 | 
4 |  |  | O=C(O)CC[C@H](NC(=O)N[C@@H](CCCCn1cc(COCCOCCOCCOCCOCCOCCOCCOCCOCCOCCOCCOCCNc2ccc([N+](=O)[O-])cc2[N+](=O)[O-])nn1)C(=O)O)C(=O)O [7, ARM-P12] | 1.65 ± 0.72 | 37.3 ± 16.2 | 
5 |  |  | COCc1cn(CCCC[C@H](NC(=O)N[C@@H](CCC(=O)O)C(=O)O)C(=O)O)nn1 [8, MeO-P0, (S)-2-(3-((S)-1-carboxy-5-(4-(methoxymethyl)-1H-1,2,3-triazol-1-yl)pentyl)ureido)pentanedioic acid] | 1.35 ± 0.54 | 30.5 ± 12.1 | 
6 |  |  | COCCOCCOCc1cn(CCCC[C@H](NC(=O)N[C@@H](CCC(=O)O)C(=O)O)C(=O)O)nn1 [9, MeO-P2, (S)-2-(3-((S)-1-carboxy-5-(4-((2-(2-methoxyethoxy)ethoxy)methyl)-1H-1,2,3-triazol-1-yl)pentyl)ureido)pentanedioic acid] | 1.81 ± 0.42 | 40.8 ± 9.4 | 
7 |  |  | COCCOCCOCCOCCOCCOCCOCCOCCOCc1cn(CCCC[C@H](NC(=O)N[C@@H](CCC(=O)O)C(=O)O)C(=O)O)nn1 [11, MeO-P8, (S)-2-(3-((S)-5-(4-2,5,8,11,14,17,20,23,26-nonaoxaheptacosyl-1H-1,2,3-triazol-1-yl)-1-carboxypentyl)ureido)pentanedioic acid] | 5.79 ± 2.54 | 131 ± 57.6 | 
8 |  |  | COCCOCCOCCOCCOCCOCCOCCOCCOCCOCCOCCOCCOCc1cn(CCCC[C@H](NC(=O)N[C@@H](CCC(=O)O)C(=O)O)C(=O)O)nn1 [12, MeO-P12, (S)-2-(3-((S)-5-(4-2,5,8,11,14,17,20,23,26,29,32,35,38-tridecaoxanonatriacontyl-1H-1,2,3-triazol-1-yl)-1-carboxypentyl)ureido)pentanedioic acid] | 7.3 ± 2.6 | 165 ± 58.9 | 
9 | 0.078 ± 0.007 | 1.78 ± 0.15 | O=C(O)CC[C@H](NC(=O)N[C@@H](CCCCn1cc(COCCOCCNc2ccccc2[N+](=O)[O-])nn1)C(=O)O)C(=O)O [Compound 13, (S)-2-(3-((S)-1-carboxy-5-(4-((2-(2-(2-nitrophenylamino)ethoxy)ethoxy)methyl)-1H-1,2,3-triazol-1-yl)pentyl)ureido)pentanedioic acid] |  |  | Ki (rhPSMA [1]; Table 2 analogues): 0.06 nM
10 | 0.06 ± 0.008 | 1.36 ± 0.18 | O=C(O)CC[C@H](NC(=O)N[C@@H](CCCCn1cc(COCCOCCNc2ccc([N+](=O)[O-])cc2)nn1)C(=O)O)C(=O)O [Compound 14, (S)-2-(3((S)-1-carboxy-5-(4-((2-(2-(4-nitrophenylamino)ethoxy)ethoxy)methyl)-1H-1,2,3-triazol-1-yl)pentyl)ureido)pentanedioic acid] |  |  | Ki (rhPSMA [1]; Table 2 analogues): 0.078 nM
11 | 0.73 ± 0.28 | 16.6 ± 6.3 | O=C(O)CC[C@H](NC(=O)N[C@@H](CCCCn1cc(COCCOCCNc2ccccc2)nn1)C(=O)O)C(=O)O [Compound 15, (S)-2-(3-((S)-1-carboxy-5-(4-((2-(2-(phenylamino)ethoxy)ethoxy)methyl)-1H-1,2,3-triazol-1-yl)pentyl)ureido)pentanedioic acid] |  |  | Ki (rhPSMA [1]; Table 2 analogues): 0.73 nM
12 | 0.97 | 21.9 ± 9.9 | COc1ccc(NCCOCCOCc2cn(CCCC[C@H](NC(=O)N[C@@H](CCC(=O)O)C(=O)O)C(=O)O)nn2)cc1 [Compound 16, (S)-2-(3-((S)-1-carboxy-5-(4-((2-(2-(4-methoxyphenylamino)ethoxy)ethoxy)methyl)-1H-1,2,3-triazol-1-yl)pentyl)ureido)pentanedioic acid] |  |  | Ki (rhPSMA [1]; Table 2 analogues): 0.97 nM
13 | 15.1 | 342 ± 170 | O=C(O)CC[C@H](NC(=O)N[C@@H](CCCCn1cc(COCCOCCNC2CCCCC2)nn1)C(=O)O)C(=O)O [Compound 17, (S)-2-(3-((S)-1-carboxy-5-(4-((2-(2-(cyclohexylamino)ethoxy)ethoxy)methyl)-1H-1,2,3-triazol-1-yl)pentyl)ureido)pentanedioic acid] |  |  | 
14 |  |  | CC(=O)N[C@@H](CC(=O)O)C(=O)N[C@@H](CCC(=O)O)C(=O)O [NAAG, N-acetyl-aspartylglutamate] (Ac-Asp-Glu-OH) |  |  | Km (rhPSMA [2]): 925 nM
15 |  |  | CC(C)(C)OC(=O)CC[C@H](NC(=O)N[C@@H](CCCCn1cc(COCCOCCOCCOCCNc2ccc([N+](=O)[O-])cc2[N+](=O)[O-])nn1)C(=O)OC(C)(C)C)C(=O)OC(C)(C)C [PC-ARM (3), (S)-di-tert-butyl 2-(3-((S)-1-tert-butoxy-6-(4-(13-(2,4-dinitrophenylamino)-2,5,8,11-tetraoxamidecyl)-1H-1,2,3-triazol-1-yl)-1-oxohexan-2-yl)ureido)pentanedioate] |  |  | Ki [3]: 0.9 ± 0.3 nM
